# Measurements: US20140342379A1, “Means and Methods for Assessing Gonadal Toxicity” (BASF SE, priority 2011, published 2014)
# Marks after values point to notes of the source that are not given here.
# System: female rats
# Assay: 28-day repeated dose study, plasma metabolite profiling (GC-MS, LC-MS), female rats
smiles,measurement,setting,value
"CC#C[C@]1(O)CC[C@H]2[C@@H]3CCC4=CC(=O)CCC4=C3[C@@H](c3ccc(N(C)C)cc3)C[C@@]21C [Mifepristone, (11b,17b)-11-[4-(Dimethylamino)phenyl]-17-hydroxy-17-(1-propynyl)estra-4,9-dien-3-one]","3-Methoxytyrosine, plasma, treatment ratio versus control",day 7,1.09
same,"Arachidonic acid (C20:cis[5,8,11,14]4), plasma, treatment ratio versus control",day 7,0.64*
same,"Campesterol, plasma, treatment ratio versus control",day 7,0.61*
same,"Cholesterol, plasma, treatment ratio versus control",day 7,0.65*
same,"Choline plasmalogen No 03, plasma, treatment ratio versus control",day 7,0.89*
same,"Citrate, plasma, treatment ratio versus control",day 7,0.83*
same,"Docosahexaenoic acid (C22:cis[4,7,10,13,16,19]6), plasma, treatment ratio versus control",day 7,0.73*
same,"Docosapentaenoic acid (C22:cis[7,10,13,16,19]5), plasma, treatment ratio versus control",day 7,0.67
same,"Dodecanol, plasma, treatment ratio versus control",day 7,0.59*
same,"Elaidic acid (C18:trans[9]1), plasma, treatment ratio versus control",day 7,0.74*
same,"Glycerol phosphate, lipid fraction, plasma, treatment ratio versus control",day 7,0.52*
same,"Lysophosphatidylcholine (C20:4), plasma, treatment ratio versus control",day 7,0.93
same,"Metanephrine, plasma, treatment ratio versus control",day 7,0.9
same,"Phosphatidylcholine (C18:0,C18:1), plasma, treatment ratio versus control",day 7,0.85
same,"Phosphatidylcholine (C18:0,C22:6), plasma, treatment ratio versus control",day 7,0.87*
same,"Phosphatidylcholine No 04, plasma, treatment ratio versus control",day 7,0.67*
same,"Progesterone, plasma, treatment ratio versus control",day 7,0.67
same,"alpha-Tocopherol, plasma, treatment ratio versus control",day 7,0.75
same,"gamma-Linolenic acid (C18:cis[6,9,12]3), plasma, treatment ratio versus control",day 7,0.76
same,"myo-Inositol, lipid fraction, plasma, treatment ratio versus control",day 7,0.63*
same,"threo-Sphingosine, plasma, treatment ratio versus control",day 7,0.56*
same,"3-Methoxytyrosine, plasma, treatment ratio versus control",day 14,1
same,"Arachidonic acid (C20:cis[5,8,11,14]4), plasma, treatment ratio versus control",day 14,0.71*
same,"Campesterol, plasma, treatment ratio versus control",day 14,0.66*
same,"Cholesterol, plasma, treatment ratio versus control",day 14,0.72*
same,"Choline plasmalogen No 03, plasma, treatment ratio versus control",day 14,0.77*
same,"Citrate, plasma, treatment ratio versus control",day 14,0.94
same,"Docosahexaenoic acid (C22:cis[4,7,10,13,16,19]6), plasma, treatment ratio versus control",day 14,0.78*
same,"Docosapentaenoic acid (C22:cis[7,10,13,16,19]5), plasma, treatment ratio versus control",day 14,0.97
same,"Dodecanol, plasma, treatment ratio versus control",day 14,0.84*
same,"Elaidic acid (C18:trans[9]1), plasma, treatment ratio versus control",day 14,0.71*
same,"Glycerol phosphate, lipid fraction, plasma, treatment ratio versus control",day 14,0.76
same,"Lysophosphatidylcholine (C20:4), plasma, treatment ratio versus control",day 14,0.93
same,"Metanephrine, plasma, treatment ratio versus control",day 14,0.61
same,"Phosphatidylcholine (C18:0,C18:1), plasma, treatment ratio versus control",day 14,0.8*
same,"Phosphatidylcholine (C18:0,C22:6), plasma, treatment ratio versus control",day 14,0.9
same,"Phosphatidylcholine No 04, plasma, treatment ratio versus control",day 14,0.8*
same,"Progesterone, plasma, treatment ratio versus control",day 14,0.45*
same,"alpha-Tocopherol, plasma, treatment ratio versus control",day 14,0.76*
same,"gamma-Linolenic acid (C18:cis[6,9,12]3), plasma, treatment ratio versus control",day 14,0.69
same,"myo-Inositol, lipid fraction, plasma, treatment ratio versus control",day 14,0.77*
same,"threo-Sphingosine, plasma, treatment ratio versus control",day 14,0.79
same,"3-Methoxytyrosine, plasma, treatment ratio versus control",day 28,1.09
same,"Arachidonic acid (C20:cis[5,8,11,14]4), plasma, treatment ratio versus control",day 28,0.78
same,"Campesterol, plasma, treatment ratio versus control",day 28,0.83
same,"Cholesterol, plasma, treatment ratio versus control",day 28,0.76
same,"Choline plasmalogen No 03, plasma, treatment ratio versus control",day 28,0.74*
same,"Citrate, plasma, treatment ratio versus control",day 28,0.89*
same,"Docosahexaenoic acid (C22:cis[4,7,10,13,16,19]6), plasma, treatment ratio versus control",day 28,0.75*
same,"Docosapentaenoic acid (C22:cis[7,10,13,16,19]5), plasma, treatment ratio versus control",day 28,1
same,"Dodecanol, plasma, treatment ratio versus control",day 28,0.86
same,"Elaidic acid (C18:trans[9]1), plasma, treatment ratio versus control",day 28,0.79
same,"Glycerol phosphate, lipid fraction, plasma, treatment ratio versus control",day 28,0.79
same,"Lysophosphatidylcholine (C20:4), plasma, treatment ratio versus control",day 28,0.87*
same,"Metanephrine, plasma, treatment ratio versus control",day 28,0.81
same,"Phosphatidylcholine (C18:0,C18:1), plasma, treatment ratio versus control",day 28,0.7*
same,"Phosphatidylcholine (C18:0,C22:6), plasma, treatment ratio versus control",day 28,0.99
same,"Phosphatidylcholine No 04, plasma, treatment ratio versus control",day 28,0.69*
same,"Progesterone, plasma, treatment ratio versus control",day 28,0.38*
same,"alpha-Tocopherol, plasma, treatment ratio versus control",day 28,0.61*
same,"gamma-Linolenic acid (C18:cis[6,9,12]3), plasma, treatment ratio versus control",day 28,0.73*
same,"myo-Inositol, lipid fraction, plasma, treatment ratio versus control",day 28,0.86
same,"threo-Sphingosine, plasma, treatment ratio versus control",day 28,0.79
